Test results from ChEMBL document CHEMBL5260838 (J Med Chem, 2019).
pIC50: −log10 of the molar value. Values after ≈ are worked out from the molar mass of the structure shown. Blank lines part the entries; values can stand above or below the molecule they belong to.

Legend:
[1] = molecular target: T1, Sodium channel protein type 9 subunit alpha (Homo sapiens, UniProt Q15858); assay: Inhibition of human Nav1.7 alpha subunit expressed in HEK293 cells co-expressing beta1 subunit at -60 mV holding potential by whole-cell patch voltage clamp electrophysiology recording; format: cell-based
T1 sequence (Q15858 whole entry): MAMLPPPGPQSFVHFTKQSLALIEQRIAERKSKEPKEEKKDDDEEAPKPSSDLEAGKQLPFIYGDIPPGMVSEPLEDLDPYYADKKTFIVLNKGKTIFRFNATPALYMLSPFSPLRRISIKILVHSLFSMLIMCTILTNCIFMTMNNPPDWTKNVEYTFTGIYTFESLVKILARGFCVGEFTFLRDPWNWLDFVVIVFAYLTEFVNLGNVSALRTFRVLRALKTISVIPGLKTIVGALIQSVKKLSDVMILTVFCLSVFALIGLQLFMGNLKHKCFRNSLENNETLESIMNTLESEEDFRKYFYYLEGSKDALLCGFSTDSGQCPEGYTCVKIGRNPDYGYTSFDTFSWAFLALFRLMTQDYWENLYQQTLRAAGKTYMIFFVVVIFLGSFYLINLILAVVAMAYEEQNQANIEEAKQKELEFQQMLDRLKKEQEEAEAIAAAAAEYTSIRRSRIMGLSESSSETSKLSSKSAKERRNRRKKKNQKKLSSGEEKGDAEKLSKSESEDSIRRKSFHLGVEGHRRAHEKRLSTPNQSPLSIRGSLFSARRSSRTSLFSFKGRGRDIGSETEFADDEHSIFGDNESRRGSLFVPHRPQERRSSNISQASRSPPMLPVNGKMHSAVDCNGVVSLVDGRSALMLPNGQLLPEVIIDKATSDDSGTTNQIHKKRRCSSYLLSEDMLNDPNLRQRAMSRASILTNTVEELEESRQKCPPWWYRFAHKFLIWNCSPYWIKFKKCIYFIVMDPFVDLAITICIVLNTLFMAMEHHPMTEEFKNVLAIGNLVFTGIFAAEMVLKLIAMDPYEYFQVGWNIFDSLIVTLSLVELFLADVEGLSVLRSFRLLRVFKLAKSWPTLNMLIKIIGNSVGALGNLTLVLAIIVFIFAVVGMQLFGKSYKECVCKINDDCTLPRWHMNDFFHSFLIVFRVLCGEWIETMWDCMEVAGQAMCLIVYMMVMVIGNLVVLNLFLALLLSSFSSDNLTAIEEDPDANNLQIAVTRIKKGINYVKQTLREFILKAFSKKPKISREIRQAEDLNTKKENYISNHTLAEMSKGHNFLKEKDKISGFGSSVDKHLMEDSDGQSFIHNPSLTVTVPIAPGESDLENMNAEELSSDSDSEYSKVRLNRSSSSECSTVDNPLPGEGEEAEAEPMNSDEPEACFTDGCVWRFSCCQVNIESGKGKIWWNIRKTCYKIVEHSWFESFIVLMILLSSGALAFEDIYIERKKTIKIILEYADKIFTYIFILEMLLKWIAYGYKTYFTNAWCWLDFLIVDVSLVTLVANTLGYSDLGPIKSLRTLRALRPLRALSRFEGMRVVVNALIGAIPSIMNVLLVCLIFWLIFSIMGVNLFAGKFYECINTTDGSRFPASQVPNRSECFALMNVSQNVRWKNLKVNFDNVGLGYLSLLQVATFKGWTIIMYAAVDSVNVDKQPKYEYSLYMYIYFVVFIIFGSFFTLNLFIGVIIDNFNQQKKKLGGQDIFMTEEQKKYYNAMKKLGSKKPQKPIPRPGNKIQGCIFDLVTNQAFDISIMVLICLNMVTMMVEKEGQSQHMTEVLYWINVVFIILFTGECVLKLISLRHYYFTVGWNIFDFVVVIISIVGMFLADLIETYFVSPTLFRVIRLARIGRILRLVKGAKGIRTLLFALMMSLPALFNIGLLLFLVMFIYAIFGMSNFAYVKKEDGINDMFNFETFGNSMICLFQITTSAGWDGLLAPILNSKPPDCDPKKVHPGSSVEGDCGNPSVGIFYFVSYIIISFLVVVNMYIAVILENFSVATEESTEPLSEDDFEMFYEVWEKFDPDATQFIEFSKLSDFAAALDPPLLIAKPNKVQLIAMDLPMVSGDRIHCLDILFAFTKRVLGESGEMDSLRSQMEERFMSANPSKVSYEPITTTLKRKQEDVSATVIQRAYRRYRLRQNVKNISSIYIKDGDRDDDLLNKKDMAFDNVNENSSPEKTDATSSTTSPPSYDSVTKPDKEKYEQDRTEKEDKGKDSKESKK

[2] = molecular target: T1, Sodium channel protein type 9 subunit alpha; assay: Displacement of [3H]GX-545 from human Nav1.7 alpha subunit expressed in HEK293 cells co-expressing beta1 subunit by liquid scintillation counting analysis; format: cell-based
[3] = Lipophilicity, logD of the compound at pH 7.4; format: physicochemical; conditions: buffer
[4] = test system: MDR1; assay: Apparent permeability from apical to basolateral side in MDCK1 cells expressing MDR1; format: ADME, cell-based, Canis lupus familiaris; conditions: dog, MDCK-MDR1
[5] = Clearance in FVB mouse at 1 mg/kg, iv; format: ADME, organism-based; conditions: in vivo
[6] = test system: Mus musculus; assay: Antinociceptive activity against aconitine-induced pain in FVB mouse model expressing human Nav 1.7 I848T mutant assessed as reduction in nociceptive behavior at 10 mg/kg administered 120 mins prior to aconitine administration and measured after 70 mins relative to control; format: functional; design: scale not given: the % may be the effect or the level left; conditions: time 190 min, 3.167 h
[7] = Clearance in Sprague-Dawley rat at 1 mg/kg, iv; format: ADME, organism-based; conditions: in vivo
[8] = molecular target: Sodium channel protein type 1 subunit alpha (Homo sapiens, UniProt P35498); assay: Inhibition of human Nav1.1 alpha subunit expressed in HEK293 cells co-expressing beta1 subunit at -40 mV holding potential by PatchXpress automated voltage clamp electrophysiology technique; format: cell-based
[9] = test system: Mus musculus; assay: Antinociceptive activity against aconitine-induced pain in FVB mouse model expressing human Nav 1.7 I848T mutant assessed as reduction in nociceptive behavior at 3 mg/kg administered 120 mins prior to aconitine administration and measured after 70 mins relative to control; format: functional; design: scale not given: the % may be the effect or the level left; conditions: time 190 min, 3.167 h
[10] = Protein binding in rat plasma; format: ADME, cell-free; conditions: read-out: PPB (converted)
[11] = Protein binding in mouse plasma; format: ADME, cell-free; conditions: read-out: PPB (converted)
[12] = Half-life in Sprague-Dawley rat at 1 mg/kg, iv; format: ADME, organism-based; conditions: in vivo
[13] = Cmax in Sprague-Dawley rat at 5 mg/kg, po; format: ADME, organism-based; design: dose 5 mg/kg, route po; conditions: in vivo
[14] = Kinetic solubility of compound; format: physicochemical; conditions: read-out: Kinetic_solubility
[15] = molecular target: Sodium channel protein type 2 subunit alpha (Homo sapiens, UniProt Q99250); assay: Inhibition of human Nav1.2 alpha subunit expressed in HEK293 cells co-expressing beta1 subunit at -35 mV holding potential by PatchXpress automated voltage clamp electrophysiology technique; format: cell-based
[16] = Protein binding in human plasma; format: ADME, cell-free; conditions: read-out: PPB (converted)
[17] = AUC in FVB mouse at 30 mg/kg, po; format: ADME, organism-based; design: dose 30 mg/kg, route po; conditions: in vivo
[18] = Apparent permeability from apical to basolateral side in MDCK1 cells; format: ADME, cell-based, Canis lupus familiaris; conditions: dog, MDCK
[19] = AUC in Sprague-Dawley rat at 5 mg/kg, po; format: ADME, organism-based; design: dose 5 mg/kg, route po; conditions: in vivo
[20] = molecular target: Sodium channel protein type 5 subunit alpha (Homo sapiens, UniProt Q14524); assay: Inhibition of human Nav1.5 alpha subunit expressed in HEK293 cells co-expressing beta1 subunit at -60 mV holding potential by PatchXpress automated voltage clamp electrophysiology technique; format: cell-based
Sodium channel protein type 5 subunit alpha, sequence (Q14524 whole entry): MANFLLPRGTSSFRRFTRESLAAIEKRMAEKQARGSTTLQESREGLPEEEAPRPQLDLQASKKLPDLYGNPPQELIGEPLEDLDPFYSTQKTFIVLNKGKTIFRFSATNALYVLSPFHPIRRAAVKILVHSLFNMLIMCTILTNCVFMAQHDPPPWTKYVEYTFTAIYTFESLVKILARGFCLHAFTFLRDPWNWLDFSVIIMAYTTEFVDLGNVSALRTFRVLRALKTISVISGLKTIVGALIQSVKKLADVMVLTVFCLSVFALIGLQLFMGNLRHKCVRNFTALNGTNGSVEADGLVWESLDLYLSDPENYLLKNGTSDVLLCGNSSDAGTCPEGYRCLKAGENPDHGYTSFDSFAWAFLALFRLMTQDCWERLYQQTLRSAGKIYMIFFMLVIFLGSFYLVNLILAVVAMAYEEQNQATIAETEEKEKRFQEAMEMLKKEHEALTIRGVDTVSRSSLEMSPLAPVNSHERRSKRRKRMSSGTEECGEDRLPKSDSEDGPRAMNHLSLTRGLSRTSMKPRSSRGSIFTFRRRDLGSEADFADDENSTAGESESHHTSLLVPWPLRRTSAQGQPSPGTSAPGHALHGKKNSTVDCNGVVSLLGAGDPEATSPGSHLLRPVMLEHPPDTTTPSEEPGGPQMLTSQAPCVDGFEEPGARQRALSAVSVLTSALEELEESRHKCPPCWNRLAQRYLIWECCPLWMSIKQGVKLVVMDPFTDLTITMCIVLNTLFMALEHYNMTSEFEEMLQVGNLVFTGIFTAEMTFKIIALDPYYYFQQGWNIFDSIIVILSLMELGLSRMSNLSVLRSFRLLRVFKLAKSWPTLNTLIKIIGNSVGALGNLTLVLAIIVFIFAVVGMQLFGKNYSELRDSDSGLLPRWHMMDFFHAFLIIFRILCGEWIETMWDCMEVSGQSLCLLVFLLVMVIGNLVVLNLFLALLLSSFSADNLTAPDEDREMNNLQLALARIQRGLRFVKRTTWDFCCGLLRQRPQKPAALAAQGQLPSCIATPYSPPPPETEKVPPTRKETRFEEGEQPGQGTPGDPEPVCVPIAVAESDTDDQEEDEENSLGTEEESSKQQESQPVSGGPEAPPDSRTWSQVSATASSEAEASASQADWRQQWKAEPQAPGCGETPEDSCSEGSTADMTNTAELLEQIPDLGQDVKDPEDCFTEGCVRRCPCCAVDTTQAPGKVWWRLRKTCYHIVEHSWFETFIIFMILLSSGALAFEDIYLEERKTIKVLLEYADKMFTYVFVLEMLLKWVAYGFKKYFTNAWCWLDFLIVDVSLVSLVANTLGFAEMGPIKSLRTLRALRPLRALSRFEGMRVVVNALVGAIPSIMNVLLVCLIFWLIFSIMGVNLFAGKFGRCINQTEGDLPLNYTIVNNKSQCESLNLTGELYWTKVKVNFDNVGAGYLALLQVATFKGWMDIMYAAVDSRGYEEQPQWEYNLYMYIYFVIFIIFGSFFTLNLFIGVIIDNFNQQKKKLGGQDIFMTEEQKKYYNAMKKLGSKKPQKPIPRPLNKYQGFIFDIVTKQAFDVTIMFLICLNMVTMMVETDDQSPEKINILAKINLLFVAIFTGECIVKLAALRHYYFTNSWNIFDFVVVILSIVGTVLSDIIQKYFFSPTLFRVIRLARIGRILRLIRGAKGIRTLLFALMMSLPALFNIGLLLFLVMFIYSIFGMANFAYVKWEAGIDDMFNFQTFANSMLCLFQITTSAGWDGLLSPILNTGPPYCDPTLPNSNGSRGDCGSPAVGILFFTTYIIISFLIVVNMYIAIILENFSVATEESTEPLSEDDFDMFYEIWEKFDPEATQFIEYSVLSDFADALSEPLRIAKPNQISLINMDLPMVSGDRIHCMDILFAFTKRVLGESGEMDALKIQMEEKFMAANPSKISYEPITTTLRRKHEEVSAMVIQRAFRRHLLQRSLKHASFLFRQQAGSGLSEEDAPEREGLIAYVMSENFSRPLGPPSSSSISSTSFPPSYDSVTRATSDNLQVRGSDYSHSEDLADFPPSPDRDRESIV

[21] = molecular target: Sodium channel protein type 9 subunit alpha (Mus musculus, UniProt Q62205); assay: Inhibition of mouse Nav1.7 at -60 mV holding potential by PatchXpress automated voltage clamp electrophysiology technique
[22] = Volume of distribution at steady state in FVB mouse at 1 mg/kg, iv; format: ADME, organism-based; conditions: FVB, in vivo, read-out: Vdss
[23] = molecular target: Sodium channel protein type 10 subunit alpha (Mus musculus) (UniProt Q6QIY3); assay: Inhibition of TTX-resistant Nav1.8 in mouse dorsal root ganglion neuron at 10 uM by voltage clamp recording relative to control; format: tissue-based; conditions: DRG neuron
[24] = Oral bioavailability in FVB mouse at 30 mg/kg; format: ADME, organism-based; conditions: in vivo
[25] = Half-life in FVB mouse at 30 mg/kg, po; format: ADME, organism-based; conditions: in vivo
[26] = test system: mouse breast cancer resistant protein (Bcrp); assay: Apparent permeability from apical to basolateral side in MDCK-II cells expressing mouse breast cancer resistant protein; format: ADME, cell-based, Canis lupus familiaris; conditions: dog
[27] = Cmax in FVB mouse at 30 mg/kg, po; format: ADME, organism-based; design: dose 30 mg/kg, route po; conditions: in vivo
[28] = molecular target: Sodium channel protein type 8 subunit alpha (Homo sapiens, UniProt Q9UQD0); assay: Inhibition of human Nav1.6 alpha subunit expressed in HEK293 cells co-expressing beta1 subunit at -35 mV holding potential by PatchXpress automated voltage clamp electrophysiology technique; format: cell-based
[29] = molecular target: Sodium channel protein type 9 subunit alpha (Rattus norvegicus, UniProt O08562); assay: Inhibition of rat Nav1.7 at -60 mV holding potential by PatchXpress automated voltage clamp electrophysiology technique
[30] = Oral bioavailability in Sprague-Dawley rat at 5 mg/kg; format: ADME, organism-based; conditions: in vivo
[31] = Volume of distribution at steady state in Sprague-Dawley rat at 1 mg/kg, iv; format: ADME, organism-based; conditions: in vivo, read-out: Vdss
[32] = Half-life in Sprague-Dawley rat at 5 mg/kg, po; format: ADME, organism-based; conditions: in vivo
[33] = test system: Mus musculus; assay: Antinociceptive activity against aconitine-induced pain in FVB mouse model expressing human Nav 1.7 I848T mutant assessed as reduction in nociceptive behavior at 6 mg/kg administered 120 mins prior to aconitine administration and measured after 70 mins relative to control; format: functional; design: scale not given: the % may be the effect or the level left; conditions: time 190 min, 3.167 h
[34] = Half-life in FVB mouse at 1 mg/kg, iv; format: ADME, organism-based; conditions: FVB, in vivo
[35] = Solubility of compound; format: physicochemical
[36] = Volume of distribution at steady state in mouse at 1 mg/kg, iv; format: ADME, organism-based; conditions: in vivo, read-out: Vdss
[37] = Cmax in mouse at 30 mg/kg, po; format: ADME, organism-based; design: dose 30 mg/kg, route po; conditions: in vivo
[38] = AUC in mouse at 30 mg/kg, po; format: ADME, organism-based; design: dose 30 mg/kg, route po; conditions: in vivo
[39] = Oral bioavailability in mouse at 30 mg/kg; format: ADME, organism-based; conditions: in vivo

SMILES: CC(C)c1cc(C(=O)NS(C)(=O)=O)c(F)cc1OCC12CC3CC(CC(C3)C1)C2
- pIC50 [1]: 8.00
- pIC50 [2]: 7.55

SMILES: CS(=O)(=O)NC(=O)c1cc(Cl)c(OCC23CC4CC(CC(O)(C4)C2)C3)cc1F
- pIC50 [1]: 5.66
- pIC50 [2]: < 5.00

SMILES: CCc1cc(C(=O)NS(C)(=O)=O)c(F)cc1OCC12CC3CC(CC(C3)C1)C2
- pIC50 [1]: 8.22
- pIC50 [2]: 7.82

SMILES: CC1(COc2cc(F)c(C(=O)NS(=O)(=O)C3CC3)cc2C2CC2)CCC(F)(F)CC1
- Papp A→B [4]: 11 ×10⁻⁶ cm/s
- clearance [5]: 1.6 mL/min/kg
- Activity [6]: 84%
- clearance [7]: 0.4 mL/min/kg
- pIC50 [8]: 7.32
- logD ([3]; read-out: logD): 1.4
- Activity [9]: 56%
- fraction unbound [10]: 0.002
- fraction unbound [11]: 0.002
- half-life [12]: 9 h
- Cmax [13]: 25 µM
- solubility kinetic [14]: 32 µM (≈ 14.3 µg/mL)
- pIC50 [15]: 8.22
- fraction unbound [16]: 0.004
- AUC [17]: 350 µM·h
- Papp A→B [18]: 22 ×10⁻⁶ cm/s
- AUC [19]: 160 µM·h
- pIC50 [20]: 6.59
- pIC50 [21]: 8.60
- Vd [22]: 0.28 L/kg
- inhibition [23]: 26%
- bioavailability [24]: 49%
- half-life [25]: 15.6 h
- Papp A→B [26]: 0.4 ×10⁻⁶ cm/s
- Cmax [27]: 69 µM
- pIC50 [28]: 7.31
- pIC50 [29]: 8.05
- bioavailability [30]: 66%
- Vd [31]: 0.29 L/kg
- half-life [32]: 16.9 h
- Activity [33]: 72%
- half-life [34]: 2.1 h

SMILES: CS(=O)(=O)NC(=O)c1cc(Cl)c(OCC23CC4CC(CC(F)(C4)C2)C3)cc1F
- pIC50 [2]: 6.45

SMILES: CS(=O)(=O)NC(=O)c1cc(Cl)c(OCC23CC4CC(C2)C(F)(F)C(C4)C3)cc1F
- pIC50 [2]: 6.54

SMILES: CS(=O)(=O)NC(=O)c1cc(Cl)c(OCC23CC4CC(CC(C4)C2)C3)cc1Cl
- pIC50 [1]: 6.24
- pIC50 [2]: 5.64

SMILES: CS(=O)(=O)NC(=O)c1cc(Cl)c(OCC23CC4(F)CC(F)(CC(F)(C4)C2)C3)cc1F
- pIC50 [1]: 6.12
- pIC50 [2]: 5.62

SMILES: CS(=O)(=O)NC(=O)c1ccc(OCC23CC4CC(CC(C4)C2)C3)c(Cl)c1
- pIC50 [1]: 7.23
- pIC50 [2]: 6.48

SMILES: CS(=O)(=O)NC(=O)c1cc(Cl)c(OC2CCCCC2)cc1F
- pIC50 [1]: 6.59
- logD ([3]; read-out: logD): 1.3
- pIC50 [2]: 5.92

SMILES: CS(=O)(=O)NC(=O)c1cc(F)c(OCC23CC4CC(CC(C4)C2)C3)cc1F
- pIC50 [1]: 7.39
- pIC50 [2]: 6.19

SMILES: CS(=O)(=O)NC(=O)c1cc(Cl)c(OCC23CC4CC(CC(C4)C2)C3)cc1F
- solubility [35]: 31 µM (≈ 12.9 µg/mL)
- Vd [36]: 1.2 L/kg
- logD [3]: 3.5
- Cmax [37]: 45 µM
- Papp A→B [18]: 13 ×10⁻⁶ cm/s
- AUC [38]: 240 µM·h
- bioavailability [39]: 100%

SMILES: Cc1cc(C(=O)NS(C)(=O)=O)c(F)cc1OCC12CC3CC(CC(C3)C1)C2
- pIC50 [1]: 8.22
- pIC50 [2]: 7.43

Next, values leading:

- pIC50 [1]: 8.51
- pIC50 [2]: 8.10
SMILES: CS(=O)(=O)NC(=O)c1cc(C2CC2)c(OCC23CC4CC(C2)C(F)(F)C(C4)C3)cc1F

- pIC50 [1]: 8.30
- pIC50 [2]: 7.77
SMILES: CCC1(COc2cc(F)c(C(=O)NS(=O)(=O)C3CC3)cc2C2CC2)CCC(F)(F)CC1

- pIC50 [1]: 5.13
- logD ([3]; read-out: logD): 0.21
- pIC50 [2]: < 5.00
SMILES: CS(=O)(=O)NC(=O)c1cc(Cl)c(OCC2CCOCC2)cc1F

- pIC50 [2]: 7.48
SMILES: O=C(NS(=O)(=O)C1CC1)c1cc(C2CC2)c(OCC2CCC(F)(F)CC2)cc1F

- pIC50 [1]: 6.36
- logD ([3]; read-out: logD): 0.4
- pIC50 [2]: 5.57
SMILES: CS(=O)(=O)NC(=O)c1cc(Cl)c(OCCC2CC2)cc1F

- pIC50 [1]: 7.12
- pIC50 [2]: 6.52
SMILES: COCCS(=O)(=O)NC(=O)c1cc(C2CC2)c(OCC2CCC(F)(F)CC2)cc1F

- pIC50 [1]: 7.77
- logD ([3]; read-out: logD): 1.5
- pIC50 [2]: 6.30
SMILES: CS(=O)(=O)NC(=O)c1cc(Cl)c(OCCC2CCCCC2)cc1F

- pIC50 [1]: 7.37
- logD ([3]; read-out: logD): 1.4
- pIC50 [2]: 6.74
SMILES: CS(=O)(=O)NC(=O)c1cc(Cl)c(OCC2CCCCC2)cc1F

- pIC50 [1]: 8.22
- pIC50 [2]: 8.00
SMILES: CC1(COc2cc(F)c(C(=O)NS(=O)(=O)C3CC3)cc2C2CC2)CCC(C(F)(F)F)CC1 (configuration not stated)

- pIC50 [1]: 7.17
- logD ([3]; read-out: logD): 1.1
- pIC50 [2]: 6.28
SMILES: CS(=O)(=O)NC(=O)c1cc(Cl)c(OCC2CCCC2)cc1F

- pIC50 [2]: 8.22
SMILES: CS(=O)(=O)NC(=O)c1cc(C2CC2)c(OCC23CC4CC(CC(C4)C2)C3)cc1F

- pIC50 [1]: 9.15
- pIC50 [2]: 7.66
SMILES: CS(=O)(=O)NC(=O)c1cc(C2CC2)c(OCC2CCCCC2)cc1F
